Results published in patent US20020106347A1, “Cytokines and their use in treatment and/or prophylaxis of breast cancer” (priority 1995, published 2002).

How the values were obtained:
[1] = system: T47D; test: Receptor binding of radioiodinated ligand to T-47D cells; set-up: species or system human; details: 125I-ligand, room temperature 60 min
Procedure: (§1) Receptor binding assays were performed using radioiodinated LIF (^125I-LIF) and OSM (^125I-OSM). The radioiodination of LIF and OSM and binding assays were essentially performed as previously described (Hilton et al., 1991; Hilton and Nicola, 1992). Briefly, 50 μl aliquots containing 1×10^7 cells, suspended in RPMI-1640 medium containing 10% (v/v) BCS, were placed in Falcon tubes with 40 μl of the respective radioiodinated ligand at 1×10^5 cpm per 40 μl, with or without greater than a 40-fold excess of unlabelled ligand. Incubation was carried out at room temperature for 60 min and cells were resuspended and layered over 180 μl of (v/v) BCS. Cell associated and free radioiodinated ligand were separated by centrifugation. The pellet and supernatant were subsequently counted in a γ-counter. Specific binding was estimated by subtraction of non specific binding from binding with ^125I-ligand (total binding). Number of cell surface receptors and dissociation constant were calculated by Scatchard analysis.

[2] = system: MCF-7 cell line; test: Receptor binding of radioiodinated ligand to MCF-7 cells, Scatchard analysis; set-up: species or system human; details: for Kd: MCF-7, Scatchard analysis, read-out: dissociation constant; for specific binding(cpm)/10^6 cells: MCF-7M, 125I-ligand, room temperature 60 min
Procedure: (§2) FIG. 20 is a graphical representation showing Scatchard analyses of the saturation isotherms of LIF and OSM binding to breast cancer cell lines. Cells were incubated with various concentrations of labelled or unlabelled ligand in the presence or absence of a 10-100 fold excess of unlabelled ligand. After 18 hr on ice, bound and free ligand were separated by centrifugation through bovine calf serum. Bound and free ^125I-ligand was quantitated in a γ-counter and the data was depicted as a Scatchard transformation. Data was normalised for cell number and is shown as binding to 10^6 cells. A) Saturation isotherm of LIF binding to the MCF-7 cell line. […] B) Saturation isotherm of OSM binding to the MDA-MB-231 cell line.
as §1

[3] = system: MDA-MB-231 cells; test: Proliferation of MDA-MB-231 cells in culture, viable cell count; type: cell-based, human
Procedure: FIG. 19 is a graphical representation showing MDA-MB-231 cells after 7 days in suspension culture. 10^4MDA-MB-231 cells were cultured in 500 μl RPMI/10% (v/v) BCS with the indicated growth factor. After 7 days viable cells were counted using a hemacytometer. Results are from 8 experiments, each performed in triplicate.
(§3) Proliferation of the cell lines was measured in monolayer culture in 24 well Costar cluster plates. Cells were plated at an initial density of 10 000 cells/ml and cultured in 500 μl RPMI-1640 supplemented with 10% (v/v) (v/v) BCS and with each growth factor as indicated (LIF, 1000 U/ml; IL-6, 100 ng/ml; OSM, 10 ng/ml; CNTF, 10 ng/ml; IL-11, 100 ng/ml). These concentrations are maximally active in other systems (Nandurkar et al., 1996; Hilton et al., 1994; Zhang et al., 1994; Tanigawa et al., 1995). After 7 or 10 days at 37° C. in a fully humidified atmosphere containing 10% (v/v) CO2 in air, cells were trypsinised and counted using a haemocytometer and an inverted microscope. Cell viability was assessed using eosin exclusion. Results were expressed as a percentage of the corresponding untreated control value for that experiment.

[4] = system: MCF-7 cells; test: Clonogenic assay in agar after monolayer culture; type: cell-based, human; details: MCF-7, 7 days monolayer then 14 days agar
Procedure: FIG. 3 is a graphical representation showing clonogenicity of MCF-7M cells. Following suspension culture MCF-7M cell viability was measured by agar culture. Cells were plated in agar with the indicated concentrations of each of the growth factors. After 14 days culture colonies of cells were counted. Cell numbers reported here are the results of 3 experiments, each performed in triplicate, and are expressed according to the number of cells that went into suspension culture.
FIG. 17 is a graphical representation showing clonogenicity of MCF-7 cells after 1 week in suspension culture. Following suspension culture clonogenicity of MCF-7 cells was assayed in agar culture. Cells were plated in agar with the indicated growth factor and maintained at 37° C0 in a humidified incubator with 5% CO2 in air. After 14 days colonies of cells were counted. Results are from 9 experiments using IL-6, LIF and OSM, and 5 experiments using CNTF and IL-11. Each experiment was performed in triplicate, and colony numbers are expressed as a percentage of untreated controls.
Clonogenic potential of cells following monolayer culture was assessed in a semi-solid culture medium. Cells were cultured in triplicate in 35 mm Petri dishes containing 1 ml Iscove's modified Dulbecco's medium (IMDM) supplemented with 25% (v/v) (v/v) BCS, 0.3% (w/v) agar with final concentration of growth factor as outlined above, and with 200 cells per ml for control cultures Cultures were maintained at 37° C. in a humidified incubator with 5% (v/v) CO2 in air. After 14 days, colonies were enumerated using a dissecting microscope. A colony was defined as a clone of greater than 40 cells. All cultures were performed in triplicate.

[5] = system: four breast cancer cell lines; test: Proliferation of four breast cancer cell lines in monolayer culture (summary); type: cell-based, human
Procedure: as §3
Experiments were performed to determine whether these morphological changes were associated with alterations in cell growth. The proliferation of four breast cancer cell lines was examined in monolayer cultures containing either IL-6, LIF, OSM, CNTF or IL-11.

[6] = system: MDA-MB-231 cell line; test: Receptor binding of radioiodinated ligand to MDA-MB-231 cells, Scatchard analysis; set-up: species or system human; details: for specific binding(cpm)/10^6 cells: MDA-MB-231, 125I-ligand, room temperature 60 min
Procedure: as §2, §1

[7] = system: BT-549 cells; test: Proliferation of BT-549 cells in culture, viable cell count; type: cell-based, human; details: for effect on cell proliferation (in words): BT-549
Procedure: FIGS 5A and B are graphical representations of BT-549 cells in liquid culture. 10^4 BT-549 cells were cultured in 500 μl RPMI/10% (v/v) BCS containing the relevant concentration of each of the growth factors (OSM, IL-11 and IL-6). After 10 days, culture viable cells were counted using a hemacytometer. Cell numbers reported here in the two graphs are the results of 1 experiment performed in triplicate.
FIG. 18 is a graphical representation showing BT-549 cells after 10 days in suspension culture. 10^4BT-549 cells were cultured in 500 μl RPMI/10% (v/v) BCS with the indicated growth factor. After 10 days culture viable cells were counted using a hemacytometer. Results are from 6 experiments, each performed in triplicate.
as §3

[8] = system: HBL-100 cell line; test: Receptor binding of radioiodinated ligand to HBL-100 cells, Scatchard analysis; set-up: species or system human; details: for specific binding(cpm)/10^6 cells: HBL-100, 125I-ligand, room temperature 60 min
Procedure: as §2, §1

## Leukemia Inhibitory Factor [LIF]
[1]
  specific binding(cpm)/10^6 cells: 380 +/− 10 cpm
[2]
  Kd: 0.0146 nM
  specific binding(cpm)/10^6 cells: 350 +/− 100 cpm
[3]; MDA-MB-231
  effect on cellular proliferation (in words): did not result in significant effects on cellular proliferation
[4]
  effect on colony formation / clonogenic potential (in words): significant reduction of colony formation
[5]
  cell lines with significant inhibition of cellular proliferation: ¼
[6]
  specific binding(cpm)/10^6 cells: 450 +/− 120 cpm
[7]
  effect on cell proliferation (in words): failure of BT-549 cells and MDA-MB-231 cells to respond
[8]
  specific binding(cpm)/10^6 cells: 590 +/− 30 cpm
[8]; HBL-100, Scatchard analysis, read-out: dissociation constant
  Kd: 7.49 pM

## oncostatin M [OSM]
[1]
  specific binding(cpm)/10^6 cells: 1400 +/− 20 cpm
[2]
  Kd: 2 nM
  specific binding(cpm)/10^6 cells: 1250 +/− 90 cpm
[3]; MDA-MB-231, 7 days
  inhibition of proliferation, up to (maximum observed): up to 65%
[3]; MDA-MB-231, 7 days, 8 experiments
  mean inhibition of proliferation: 54%
[4]
  effect on colony formation / clonogenic potential (in words): significant reduction of colony formation
[5]
  cell lines with significant inhibition of cellular proliferation: ¾
[6]
  specific binding(cpm)/10^6 cells: 2980 +/− 460 cpm
[6]; MDA-MB-231, Scatchard analysis, read-out: dissociation constant
  Kd: 0.092 nM
[7]
  effect on cell proliferation (in words): inhibition of cell proliferation
[7]; BT-549, 7 days
  mean growth inhibition: 60%
[7]; BT-549, 10 days
  growth inhibition, up to (maximum observed): up to 80%
  mean growth inhibition: 60%
[8]
  specific binding(cpm)/10^6 cells: 140 +/− 10 cpm
[8]; HBL-100 vs T-47D, MDA-MB-231, MCF-7
  reduced binding of radiolabelled ligand compared with the other cell lines: approximately 10 fold
